{
  "source": "patent US20180110754A1",
  "about": "“CENICRIVIROC FOR THE TREATMENT OF FIBROSIS” (Tobira Therapeutics, Inc., priority 2015, published 2018)",
  "assay": "Study 202: fasting metabolic laboratory parameters",
  "format": "in vivo",
  "excerpt": "All abnormalities in total cholesterol, LDL cholesterol, triglycerides, or glucose were Grade 1 or Grade 2.\nMean baseline values and changes from baseline in HbA1c, HOMA-IR, fasting LDL, fasting HDL, fasting total cholesterol, fasting total cholesterol/HDL ratio, and fasting triglycerides are shown in Table 36.",
  "key": {"[1]": {"conditions": "CVC 200 mg (N = 57), through Week 48"}},
  "data": [
    {"molecule": "CCCCOCCOc1ccc(-c2ccc3c(c2)/C=C(/C(=O)Nc2ccc([S@@+]([O-])Cc4cncn4CCC)cc2)CCCN3CC(C)C)cc1", "note": "[CVC, (S)-8-[4-(2-Butoxyethoxy)phenyl]-1-isobutyl-N-(4-{[(1-propyl-1H-imidazol-5-yl)methyl]sulfinyl}phenyl)-1,2,3,4-tetrahydro-1-benzazocine-5-carboxamide]", "values": [
      {"measurement": "Fasting laboratory abnormality, worst Grade 3, n subjects", "setting": "[1]", "result": 0},
      {"measurement": "Fasting laboratory abnormality, worst Grade 4, n subjects", "setting": "[1]", "result": 0},
      {"measurement": "Fasting total cholesterol abnormality, any grade, n subjects", "setting": "[1]", "result": 5},
      {"measurement": "Fasting total cholesterol, worst Grade 1, n subjects", "setting": "[1]", "result": 2},
      {"measurement": "Fasting total cholesterol, worst Grade 2, n subjects", "setting": "[1]", "result": 3},
      {"measurement": "Fasting total cholesterol, worst Grade 3, n subjects", "setting": "[1]", "result": 0},
      {"measurement": "Fasting total cholesterol, worst Grade 4, n subjects", "setting": "[1]", "result": 0},
      {"measurement": "Fasting triglycerides abnormality, any grade, n subjects", "setting": "[1]", "result": 1},
      {"measurement": "Fasting triglycerides, worst Grade 1, n subjects", "setting": "[1]", "result": 0},
      {"measurement": "Fasting triglycerides, worst Grade 2, n subjects", "setting": "[1]", "result": 1},
      {"measurement": "Fasting triglycerides, worst Grade 3, n subjects", "setting": "[1]", "result": 0},
      {"measurement": "Fasting triglycerides, worst Grade 4, n subjects", "setting": "[1]", "result": 0},
      {"measurement": "Fasting HDL, mean change from baseline", "setting": "Week 4, All CVC, EFV", "result": -2.92, "unit": "mg/dL"},
      {"measurement": "Fasting LDL, mean change from baseline", "setting": "Week 4, All CVC, EFV", "result": -9.72, "unit": "mg/dL"},
      {"measurement": "Fasting total cholesterol, mean change from baseline", "setting": "Week 4, All CVC, EFV", "result": -14, "unit": "mg/dL"},
      {"measurement": "Fasting triglycerides, mean change from baseline", "setting": "Week 4, All CVC, EFV", "result": -5, "unit": "mg/dL"},
      {"measurement": "HOMA-IR, mean change from baseline", "setting": "Week 4, All CVC, EFV", "result": "−0.30"},
      {"measurement": "HbA1c, mean change from baseline", "setting": "Week 4, All CVC, EFV", "result": "−0.03", "unit": "% Hb"},
      {"measurement": "Fasting HDL, mean change from baseline", "setting": "Week 4, CVC 100 mg", "result": -3.98, "unit": "mg/dL"},
      {"measurement": "Fasting LDL, mean change from baseline", "setting": "Week 4, CVC 100 mg", "result": -10.90, "unit": "mg/dL"},
      {"measurement": "Fasting total cholesterol, mean change from baseline", "setting": "Week 4, CVC 100 mg", "result": -16, "unit": "mg/dL"},
      {"measurement": "Fasting triglycerides, mean change from baseline", "setting": "Week 4, CVC 100 mg", "result": -8, "unit": "mg/dL"},
      {"measurement": "HOMA-IR, mean change from baseline", "setting": "Week 4, CVC 100 mg", "result": 0.11},
      {"measurement": "HbA1c, mean change from baseline", "setting": "Week 4, CVC 100 mg", "result": 0.01, "unit": "% Hb"},
      {"measurement": "Fasting HDL, mean change from baseline", "setting": "Week 4, CVC 200 mg", "result": -1.84, "unit": "mg/dL"},
      {"measurement": "Fasting LDL, mean change from baseline", "setting": "Week 4, CVC 200 mg", "result": -8.46, "unit": "mg/dL"},
      {"measurement": "Fasting total cholesterol, mean change from baseline", "setting": "Week 4, CVC 200 mg", "result": -12, "unit": "mg/dL"},
      {"measurement": "Fasting triglycerides, mean change from baseline", "setting": "Week 4, CVC 200 mg", "result": -2, "unit": "mg/dL"},
      {"measurement": "HOMA-IR, mean change from baseline", "setting": "Week 4, CVC 200 mg", "result": "−0.71"},
      {"measurement": "HbA1c, mean change from baseline", "setting": "Week 4, CVC 200 mg", "result": "−0.08", "unit": "% Hb"},
      {"measurement": "Fasting HDL, mean change from baseline", "setting": "Week 12, All CVC, EFV", "result": -2.09, "unit": "mg/dL"},
      {"measurement": "Fasting LDL, mean change from baseline", "setting": "Week 12, All CVC, EFV", "result": -11.44, "unit": "mg/dL"},
      {"measurement": "Fasting total cholesterol, mean change from baseline", "setting": "Week 12, All CVC, EFV", "result": -17, "unit": "mg/dL"},
      {"measurement": "Fasting triglycerides, mean change from baseline", "setting": "Week 12, All CVC, EFV", "result": -15, "unit": "mg/dL"},
      {"measurement": "HOMA-IR, mean change from baseline", "setting": "Week 12, All CVC, EFV", "result": "−0.56"},
      {"measurement": "HbA1c, mean change from baseline", "setting": "Week 12, All CVC, EFV", "result": "−0.06", "unit": "% Hb"},
      {"measurement": "Fasting HDL, mean change from baseline", "setting": "Week 12, CVC 100 mg", "result": -2.96, "unit": "mg/dL"},
      {"measurement": "Fasting LDL, mean change from baseline", "setting": "Week 12, CVC 100 mg", "result": -11.20, "unit": "mg/dL"},
      {"measurement": "Fasting total cholesterol, mean change from baseline", "setting": "Week 12, CVC 100 mg", "result": -17, "unit": "mg/dL"},
      {"measurement": "Fasting triglycerides, mean change from baseline", "setting": "Week 12, CVC 100 mg", "result": -16, "unit": "mg/dL"},
      {"measurement": "HOMA-IR, mean change from baseline", "setting": "Week 12, CVC 100 mg", "result": "−0.59"},
      {"measurement": "HbA1c, mean change from baseline", "setting": "Week 12, CVC 100 mg", "result": "−0.04", "unit": "% Hb"},
      {"measurement": "Fasting HDL, mean change from baseline", "setting": "Week 12, CVC 200 mg", "result": -1.22, "unit": "mg/dL"},
      {"measurement": "Fasting LDL, mean change from baseline", "setting": "Week 12, CVC 200 mg", "result": -11.69, "unit": "mg/dL"},
      {"measurement": "Fasting total cholesterol, mean change from baseline", "setting": "Week 12, CVC 200 mg", "result": -16, "unit": "mg/dL"},
      {"measurement": "Fasting triglycerides, mean change from baseline", "setting": "Week 12, CVC 200 mg", "result": -13, "unit": "mg/dL"},
      {"measurement": "HOMA-IR, mean change from baseline", "setting": "Week 12, CVC 200 mg", "result": "−0.53"},
      {"measurement": "HbA1c, mean change from baseline", "setting": "Week 12, CVC 200 mg", "result": "−0.08", "unit": "% Hb"},
      {"measurement": "Fasting HDL, mean change from baseline", "setting": "Week 24, All CVC, EFV", "result": -1.45, "unit": "mg/dL"},
      {"measurement": "Fasting LDL, mean change from baseline", "setting": "Week 24, All CVC, EFV", "result": -8.64, "unit": "mg/dL"},
      {"measurement": "Fasting total cholesterol, mean change from baseline", "setting": "Week 24, All CVC, EFV", "result": -13, "unit": "mg/dL"},
      {"measurement": "Fasting triglycerides, mean change from baseline", "setting": "Week 24, All CVC, EFV", "result": -15, "unit": "mg/dL"},
      {"measurement": "HOMA-IR, mean change from baseline", "setting": "Week 24, All CVC, EFV", "result": "−0.68"},
      {"measurement": "HbA1c, mean change from baseline", "setting": "Week 24, All CVC, EFV", "result": 0.06, "unit": "% Hb"},
      {"measurement": "Fasting HDL, mean change from baseline", "setting": "Week 24, CVC 100 mg", "result": -2.15, "unit": "mg/dL"},
      {"measurement": "Fasting LDL, mean change from baseline", "setting": "Week 24, CVC 100 mg", "result": -10.21, "unit": "mg/dL"},
      {"measurement": "Fasting total cholesterol, mean change from baseline", "setting": "Week 24, CVC 100 mg", "result": -14, "unit": "mg/dL"},
      {"measurement": "Fasting triglycerides, mean change from baseline", "setting": "Week 24, CVC 100 mg", "result": -8, "unit": "mg/dL"},
      {"measurement": "HOMA-IR, mean change from baseline", "setting": "Week 24, CVC 100 mg", "result": "−1.42"},
      {"measurement": "HbA1c, mean change from baseline", "setting": "Week 24, CVC 100 mg", "result": 0.06, "unit": "% Hb"},
      {"measurement": "Fasting HDL, mean change from baseline", "setting": "Week 24, CVC 200 mg", "result": -0.71, "unit": "mg/dL"},
      {"measurement": "Fasting LDL, mean change from baseline", "setting": "Week 24, CVC 200 mg", "result": -6.93, "unit": "mg/dL"},
      {"measurement": "Fasting total cholesterol, mean change from baseline", "setting": "Week 24, CVC 200 mg", "result": -12, "unit": "mg/dL"},
      {"measurement": "Fasting triglycerides, mean change from baseline", "setting": "Week 24, CVC 200 mg", "result": -23, "unit": "mg/dL"},
      {"measurement": "HOMA-IR, mean change from baseline", "setting": "Week 24, CVC 200 mg", "result": 0.15},
      {"measurement": "HbA1c, mean change from baseline", "setting": "Week 24, CVC 200 mg", "result": 0.06, "unit": "% Hb"},
      {"measurement": "Fasting HDL, mean change from baseline", "setting": "Week 48, All CVC, EFV", "result": -0.96, "unit": "mg/dL"},
      {"measurement": "Fasting LDL, mean change from baseline", "setting": "Week 48, All CVC, EFV", "result": -8.49, "unit": "mg/dL"},
      {"measurement": "Fasting total cholesterol, mean change from baseline", "setting": "Week 48, All CVC, EFV", "result": -12, "unit": "mg/dL"},
      {"measurement": "Fasting triglycerides, mean change from baseline", "setting": "Week 48, All CVC, EFV", "result": -12, "unit": "mg/dL"},
      {"measurement": "HOMA-IR, mean change from baseline", "setting": "Week 48, All CVC, EFV", "result": "−0.76"},
      {"measurement": "HbA1c, mean change from baseline", "setting": "Week 48, All CVC, EFV", "result": 0.10, "unit": "% Hb"},
      {"measurement": "Fasting HDL, mean change from baseline", "setting": "Week 48, CVC 100 mg", "result": -1.63, "unit": "mg/dL"},
      {"measurement": "Fasting LDL, mean change from baseline", "setting": "Week 48, CVC 100 mg", "result": -11.16, "unit": "mg/dL"},
      {"measurement": "Fasting total cholesterol, mean change from baseline", "setting": "Week 48, CVC 100 mg", "result": -14, "unit": "mg/dL"},
      {"measurement": "Fasting triglycerides, mean change from baseline", "setting": "Week 48, CVC 100 mg", "result": -9, "unit": "mg/dL"},
      {"measurement": "HOMA-IR, mean change from baseline", "setting": "Week 48, CVC 100 mg", "result": "−1.56"},
      {"measurement": "HbA1c, mean change from baseline", "setting": "Week 48, CVC 100 mg", "result": 0.09, "unit": "% Hb"},
      {"measurement": "Fasting HDL, mean change from baseline", "setting": "Week 48, CVC 200 mg", "result": -0.21, "unit": "mg/dL"},
      {"measurement": "Fasting LDL, mean change from baseline", "setting": "Week 48, CVC 200 mg", "result": -5.20, "unit": "mg/dL"},
      {"measurement": "Fasting total cholesterol, mean change from baseline", "setting": "Week 48, CVC 200 mg", "result": -9, "unit": "mg/dL"},
      {"measurement": "Fasting triglycerides, mean change from baseline", "setting": "Week 48, CVC 200 mg", "result": -16, "unit": "mg/dL"},
      {"measurement": "HOMA-IR, mean change from baseline", "setting": "Week 48, CVC 200 mg", "result": 0.17},
      {"measurement": "HbA1c, mean change from baseline", "setting": "Week 48, CVC 200 mg", "result": 0.10, "unit": "% Hb"},
      {"measurement": "Change in fasting cholesterol (total, LDL, HDL) during treatment", "setting": "through Week 48", "result": "A decrease was observed"}
    ]}
  ]
}
